Results reported in patent US7683185B2, “Histone deacetylase inhibitors” (Queen Mary & Westfield College, priority 2002, dated 2010).
Like-named read-outs stand apart in the source and are kept apart here.

Assays:
[1] = test system: T1, whole cell HDAC activity (CEM cells); experiment: Whole cell HDAC activity assay in intact CEM cells (MAL substrate); type: cell-based
T1 construct: other: intact CEM cells
Experimental: The fluorescent substrate MAL has been used in a novel assay established and validated by Dr. Joel for the determination of HDAC activity in intact cells.
1×10^6 CEM cells in 1 ml medium were exposed to inhibitors at 6 concentrations for 60 minutes, after which MAL at 20 μg/ml (5 μg/mL final concentration) was added for a further 30 minutes, all at 37° C. Cells were then rapidly washed at 4° C., lysed by sonication, the reaction stopped with acetonitrile, and MAL and the deacetylated product determined in the supernatant by rapid HPLC.
Chromatographic separation of MAL and ML was carried out using a 15 cm Apex ODS 5 μM column with acetonitrile/distilled water (40:60), 2% trifluoracetic acid (TFA) v/v mobile phase at a flow rate of 1.2 ml/minute.
The activity of each inhibitor was assessed at a minimum of 5 non-zero concentrations. MAL and ML peak heights were used to derive the percentage MAL in the mixture as the ration of MAL: MAL+ML.

rat liver HDAC = experiment: HDAC activity assay with partially purified rat liver HDAC enzyme (MAL substrate); type: biochemical
Experimental: The activity of the compounds as inhibitors of histone deacetylase was investigated using a modified assay based on a rapid in vitro HDAC activity assay (based on the deacetylation of an Ω-acetylated lysine (MAL)) and described by Hoffman et al. in Nucl. Acids. […] The reaction was terminated with 100 μl acetonitrile, and MAL and the deacetylated produce (ML) were determined in the supernatant. […] MAL and ML peak heights were used to derive the percentage MAL in the mixture as the ration of MAL: MAL+ML.

[2] = test system: whole cell HDAC activity (CEM cells); experiment: Whole cell HDAC assay modified for 24-hour incubation with CEM cells as indicator of in vitro compound stability
CEM cells = experiment: Percentage viability in CEM cells (3-day exposure); type: cell-based
[3] = intact CEM cells, inhibitor 60 minutes then MAL 30 minutes, read-out: HDAC inhibitory activity (IC50) μM CEM cells
[4] = rat liver HDAC preparation, 60 minutes at 37° C., read-out: HDAC inhibitory activity (IC50) μM Liver preparation
[5] = Homo sapiens, CCRF-CEM, 72 h, Table 2, CEM cells, 3-day exposure, read-out: % Viability (IC50)
[6] = CEM cells (Table 2), read-out: HDAC inhibitory activity CEM cells (IC50)
[7] = intact CEM cells, read-out: HDAC activity IC50, CEM cells
[8] = rat liver HDAC, read-out: HDAC activity IC50, rat liver HDAC

IC50 [1, 3] | IC50 (rat liver HDAC; [4]) | decrease in HDAC inhibitory activity between 1 and 24 hours incubation [2] | IC50 [1, 6] | IC50 [1, 7] | IC50 (rat liver HDAC; [8]) | Compound | IC50 (CEM cells; [5]) | also measured
3.3 ± 1.3 µM | 0.8 ± 0.3 µM |  |  |  |  | O=C(/C=C/C=C/CS(=O)(=O)c1ccccc1)NO [CM4, 6-benzenesulfonyl-hexa-2,4-dienoic acid hydroxamide] |  | 
1.2 ± 0.4 µM | 0.4 ± 0.1 µM | no decrease in activity | 1.58 µM |  |  | O=C(/C=C/C=C/C[S+]([O-])c1ccc(Cl)cc1)NO (stereo not drawn) [UCL 2002, 6-(4-Chlorobenzenesulfinyl)-hexa-2,4-dienoic acid hydroxyamide] | 1.57 µM | IC50 (rat liver HDAC; purified liver HDAC (Table 2), read-out: HDAC inhibitory activity Purified liver (IC50)): 0.31 µM
 |  |  |  | 158 ± 99 µM | 6.2 ± 2 µM | sodium phenyl-butyrohydroxamic acid [NaPBHA, reference compound] |  | IC50 (CEM cells; CEM cells, 3-day exposure, read-out: IC50 values for percentage viability): 138 ± 28 µM
 |  |  |  | 47 ± 17 µM | 0.8 ± 0.7 µM | CC=CC=CC(=O)NO [hexa-2,4-dienic acid hydroxamide, reference compound] |  | 
 |  | no decrease in activity | 1.28 µM |  |  | O=C(CCCCC[S+]([O-])c1ccc(Cl)cc1)NO (stereo not drawn) [UCL 2007, 6-(4-Chloro-benzenesulfinyl)-hexanoic acid hydroxyamide] | 2.56 µM | 

Compound | IC50 [1, 3] | IC50 (rat liver HDAC; [4]) | decrease in HDAC inhibitory activity between 1 and 24 hours incubation [2] | IC50 [1, 6] | IC50 [1, 7] | IC50 (rat liver HDAC; [8]) | IC50 (CEM cells; [5]) | also measured
CC(/C=C/C(=O)NO)=C\[C@@H](C)C(=O)c1ccc(N(C)C)cc1 [trichostatin, Trichostatin A, reference compound] |  |  | greater than 90% |  |  |  |  | IC50 (CEM cells; Homo sapiens, CCRF-CEM, 72 h, read-out: % viability (IC50) μM): 0.082 ± 0.011 µM
